# Measured values: patent US20180271792A1, “ORAL DELIVERY OF PHYSIOLOGICALLY ACTIVE SUBSTANCES” (Rezolute, Inc., priority 2017, published 2018)
# Assays:
# blood glucose = experiment: Blood glucose in rats after oral gavage or subcutaneous dosing; assay type: in vivo; conditions: subcutaneous 0.3 IU/kg
# Procedure: The peptide and oil for formulations 44-47 were sonicated until they appeared cloudy but homogenous. Then the remaining ingredients were added to each sample. The samples were sonicated again until they appeared cloudy but homogenous. The samples were stored overnight at room temperature. Normal SD Rats (5 rats/group) were fasted overnight before being dosed by oral gavage at insulin equivalent dosage of 75 IU/kg. For comparison, a fifth group (sample 48) was dosed with Humulin R (recombinant human insulin) subcutaneously at 0.3 IU/kg. Blood was collected at predose (−30 min) and post dose (10 min, 30 min, 1 h, 1.5 h, 2 h, 3 h, 4 h, 6 h, 8 h) for glucose measurements by a glucometer. […]
# [1] = rat, in vivo, po
# Procedure: In forming samples 12-15, the insulin-PEG (or insulin-PEG inclusion complex) and the fish oil were sonicated for 30 minutes. The DPC was then added to the sonicated mixture and the mixture was briefly swirled or vortexed to mix. The resulting mixtures were kept at room temperature for 1 hour. The samples were administered via an oral gavage to rats at 150 IU/kg (for 5 kDa PEG) and 75 IU/kg (for 2 kDa PEG). At specified intervals, blood was collected from the jugular vein and analyzed for glucose values.
# [2] = cited from earlier work
# Procedure for Caco-2 monolayer: In order to estimate the membrane permeability of various formulations, a Caco-2 permeability study was performed. The compounds tested were insulin-PEG (5 kDa), insulin-PEG (5 kDa) inclusion complex, insulin-PEG (5 kDa) inclusion complex and DPC, insulin-PEG (2 kDa), and the insulin-PEG (2 kDa) inclusion complex. All compounds were dissolved in media at a concentration of 1 mg insulin/mL media and added to a Caco-2 monolayer.
substance,measurement,setting,value
"Sample 19: 0.011 mg/kg insulin, administered subcutaneously",time glucose back to baseline (~60 mg/dL),blood glucose; Example 11,about 3 hours
same,"reduction in blood glucose to, within 30 minutes","blood glucose; Example 11, all rats",20 mg/dL
"Sample 17: 0.015 mg/kg insulin-PEG (2 kDa), administered subcutaneously",time glucose back to baseline (~60 mg/dL),blood glucose; Example 10,about 4 hours
insulin-PEG (2 kDa): human insulin conjugated with a 2 kDa PEG,serum insulin-PEG / absorption,[1],better absorbed than 5 kDa PEG
same,% of the insulin-PEG permeating through the cell layer after 3 hours,Caco-2 monolayer,1%
48: Humulin R (recombinant human insulin) dosed subcutaneously at 0.3 IU/kg [Sample 48],time glucose back at baseline,blood glucose; Example 14,3 h
"Sample 18: 0.011 mg/kg insulin, administered subcutaneously",time glucose back to baseline (~60 mg/dL),blood glucose; Example 10,about 3 hours
"GLP-1: a 31 amino acid peptide, an incretin, a hormone that can decrease blood glucose levels",in vivo half-life,[2],less than two
